# Measurements: patent US20100329996A1, “Novel Combination of Therapeutic Agents” (Glaxo Group Limited, priority 2007, published 2010)
# Columns and labels:
# [1] = stability of formulation with magnesium stearate; type: physicochemical; conditions: addition of magnesium stearate in the formulation, under conditions tested
# [2] = system: male and female ipratropium-responsive COPD subjects; assay: clinical study, single inhaled doses, FEV1; type: in vivo, human
# Method: A third clinical study assessed the safety, tolerability, pharmacodynamics and pharmacokinetics of single inhaled doses of the bromide compound (20, 50 and 100 mcg via Diskus), and tiotropium (18 mcg) in 31 male and female ipratropium-responsive COPD subjects.
# Mean FEV1 values peaked at 2 hours and decreased consistently to 24 hours for each dose.
# [3] = system: M1 and M3 receptors over the M2 receptors; assay: muscarinic receptor subtype selectivity and antagonist character; type: binding
# [4] = system: isolated human bronchial strips; assay: inhibition of carbachol-induced contraction of isolated human bronchial strips; type: cell-based; conditions: for offset half time: 10 nM; for onset half time to 50% inhibition of carbachol-induced contraction: single concentration of 10 nM
# [5] = system: muscarinic acetylcholine (Ach) receptor; assay: off-rate at the muscarinic acetylcholine receptor; type: binding
# From the text: This is known to be predictive of a long duration of action. Therefore, while a twice daily dosing at 10-100 mcg/dose may be used, if the dose is increased, such as to 100-200 mcg/dose, once daily dosing may be a suitable alternative.
# [6] = system: healthy male ipratropium-responsive subjects; assay: clinical trial, single escalating inhaled doses, airway conductance (sGaw); type: in vivo, human; conditions: for increase in airway conductance (sGaw) versus placebo, significance: all doses (bromide compound 20-350 mcg via Diskus; tiotropium 18 mcg), healthy subjects
# From the text: In another clinical trial using a binary mixture of the bromide compound and lactose monohydrate, the safety, tolerability, pharmacodynamics and pharmacokinetics of single escalating doses of the bromide compound (20, 60, 100, 250 and 350 mcg via the Diskus), and tiotropium (18 mcg) in 20 healthy male ipratropium-responsive subjects were compared.
# [7] = human clinical trial, bronchodilation and onset of action; type: in vivo
SMILES,stabilization of the product on stability [1],"FEV1 adjusted mean difference versus placebo ([2]; 20 mcg, 12 hours)","FEV1 adjusted mean difference versus placebo ([2]; 20 mcg, 24 hours)","FEV1 adjusted mean difference versus placebo ([2]; 50 mcg, 12 hours)","FEV1 adjusted mean difference versus placebo ([2]; 50 mcg, 24 hours)","FEV1 adjusted mean difference versus placebo ([2]; 100 mcg, 12 hours)","FEV1 adjusted mean difference versus placebo ([2]; 100 mcg, 24 hours)","Mean FEV1 versus placebo, significance ([2]; all doses (20, 50, 100 mcg), each time point over 24 hours, COPD subjects)","time of peak mean FEV1 ([2]; each dose (20, 50, 100 mcg))",muscarinic receptor antagonist character [3],reversibility of antagonism [3],selectivity for the M1 and M3 receptors over the M2 receptors [3],offset half time [4],onset half time to 50% inhibition of carbachol-induced contraction [4],off-rate at the muscarinic acetylcholine (Ach) receptor [5],"increase in sGaw compared with placebo ([6]; 20 mcg dose, after 24 hours)","increase in airway conductance (sGaw) versus placebo, significance [6]",onset of action in human clinical trial ([7]; compared with tiotropium),"bronchodilator efficacy in human clinical trial ([7]; human, in vivo)"
"C[N+]1(C)C2CCC1CC(CC(C#N)(c1ccccc1)c1ccccc1)C2 (stereo not drawn) [Compound (I), (Endo)-3-(2-cyano-2,2-diphenyl-ethyl)-8,8-dimethyl-8-azonia-bicyclo[3.2.1]octane]",some improvement in stabilization,,,,,,,,,,,,,,,,,,
"C[N+]1(C)[C@@H]2CC[C@H]1C[C@@H](CC(C#N)(c1ccccc1)c1ccccc1)C2.[Br-] [bromide compound, (Endo)-3-(2-cyano-2,2-diphenyl-ethyl)-8,8-dimethyl-8-azonia-bicyclo[3.2.1]octane bromide]",,241 mL,135 mL,288 mL,136 mL,305 mL,above 200 mL,statistically significantly higher than placebo,2 h,"high-affinity, pan-active, competitive and reversible",partially reversible antagonist,10 fold,195 min,25 min,slow,16%,statistically significantly greater increases,faster onset of action than tiotropium,effective long-acting anti-muscarinic bronchodilator
"C[N+]1(C)[C@@H]2C[C@@H](OC(=O)C(O)(c3cccs3)c3cccs3)C[C@H]1[C@@H]1O[C@@H]12 [tiotropium, tiotropium bromide, reference compound]",,,,,,,,,,,,,314 min,10 min,,,statistically significantly greater increases,,
